The text below walks through data of paper PMC8042770, “Odorant Receptors for Detecting Flowering Plant Cues Are Functionally Conserved across Moths and Butterflies” (Molecular Biology and Evolution, 2020).

In general, EC50 refers to the concentration at which the effect is half-maximal.

Like-named read-outs stand apart in the source and are kept apart here.

Assay [1] concerns the target HarmOR31 (Helicoverpa armigera, UniProt A0A7T3N2E9). The assay can be described thus: Xenopus oocyte two-electrode voltage clamp, HarmOR31 + Orco. Format: cell-based. From the text:
In order to expand our analysis on the response properties of HarmORs, we conducted dose–response analyses for the 28 functional HarmORs. […] Many of these terpenes have been proposed to be defensive chemicals of plants.
Briefly, the full-length gene of each OR and Orco were subcloned into the eukaryotic expression vector pT7TS. cRNAs were generated from linearized expression vectors using the mMESSAGE mMACHINE T7 kit (Ambion, Austin, TX). […] The respective Orcos of different species were used for functional studies of OR42 orthologs except for the four butterfly species (V. tameamea, P. xuthus, D. plexippus, and P. rapae), in which we used the Orco from P. xuthus.
(§1) Stock solutions of each odorant were prepared at 1 M using DMSO as a solvent, and each odorant was diluted in 1× Ringer’s solution to the indicated concentrations for electrophysiological recording. For functional screening of each HarmOR, a panel of 67 odorants belonging to three types of chemical classes: terpenes, aromatics, and aliphatics (short-chain fatty acid) were used (supplementary table S1, Supplementary Material online). For functional studies of OR42 orthologs from different species, six odorants including PAA, benzaldehyde, (E)-2-hexen-1-al, cinnamaldehyde, 2-phenylethanol, and heptanal were used.

The target of assay [2] is HarmOR7 (Helicoverpa armigera, UniProt A0A7T3KAD7). The assay can be described thus: Xenopus oocyte two-electrode voltage clamp, HarmOR7 + Orco. The format is cell-based. The procedure: (§2) In order to expand our analysis on the response properties of HarmORs, we conducted dose–response analyses for the 28 functional HarmORs. […] Six HarmORs (OR3, 22, 48, 50, 56, and 66) could not be activated by any ligand at 10^−5 M. For the other 22 HarmORs, dose–response curves were generated and EC50 values of their major ligands were calculated (fig. 2A and supplementary table S2, Supplementary Material online). The HarmOR repertoire was highly efficient in terpene detection, since the lowest EC50 values were obtained for such compounds. Many of these terpenes have been proposed to be defensive chemicals of plants. […] DMNT is also one of the oviposition deterring compounds found in larval frass of some Lepidoptera species such as S. littoralis ([Anderson et al. 1993]).
HarmOR7, sequence (A0A7T3KAD7 1-411): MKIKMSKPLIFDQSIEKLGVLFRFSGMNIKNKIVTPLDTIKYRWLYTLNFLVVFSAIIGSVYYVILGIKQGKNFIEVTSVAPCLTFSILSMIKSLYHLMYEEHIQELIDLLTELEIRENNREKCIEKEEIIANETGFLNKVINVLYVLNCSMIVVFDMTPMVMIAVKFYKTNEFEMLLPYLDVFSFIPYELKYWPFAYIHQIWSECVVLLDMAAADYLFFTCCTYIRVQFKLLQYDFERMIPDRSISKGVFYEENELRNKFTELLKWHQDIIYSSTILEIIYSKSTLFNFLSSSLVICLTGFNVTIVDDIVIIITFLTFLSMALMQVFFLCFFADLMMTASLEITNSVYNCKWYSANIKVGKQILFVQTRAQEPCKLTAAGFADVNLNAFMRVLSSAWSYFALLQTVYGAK
(§3) Functional characterization of individual ORs was performed by heterologous expression in Xenopus oocytes combined with a two-electrode voltage-clamp system ([Wang et al. 2010]). […] After incubation in nutrient solution at 18 °C for 3–5 days, the response profile of each oocyte to multiple plant odorants was recorded via a two-electrode voltage clamp (OC-725C oocyte clamp, Warner Instruments, Hamden, CT) at a holding potential of −80 mV. Data were acquired by using a Digidata 1440 A and were analyzed by pCLAMP 10.2 software (Axon Instruments Inc., Union City, CA). […]

Assay [3] deals with HarmOR26 (Helicoverpa armigera, UniProt A0A075T633). The assay can be described thus: Xenopus oocyte two-electrode voltage clamp, HarmOR26 + Orco. Format: cell-based. As to conditions: dose response in oocytes, unit M printed in b12 only. The procedure: as §2, §3
HarmOR26, sequence (A0A075T633 1-408): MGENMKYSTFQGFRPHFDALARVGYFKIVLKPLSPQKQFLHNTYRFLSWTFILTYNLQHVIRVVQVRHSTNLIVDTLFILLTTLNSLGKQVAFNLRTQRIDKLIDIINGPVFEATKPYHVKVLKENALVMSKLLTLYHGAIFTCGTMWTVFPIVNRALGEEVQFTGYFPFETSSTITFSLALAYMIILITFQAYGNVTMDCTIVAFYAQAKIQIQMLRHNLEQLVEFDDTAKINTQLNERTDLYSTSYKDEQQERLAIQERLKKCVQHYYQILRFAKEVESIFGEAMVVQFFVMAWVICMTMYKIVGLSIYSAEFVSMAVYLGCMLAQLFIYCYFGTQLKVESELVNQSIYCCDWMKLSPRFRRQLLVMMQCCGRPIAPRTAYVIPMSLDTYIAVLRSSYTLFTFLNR
A general note: Two-electrode voltage clamp is typically applied to oocytes expressing channels or transporters.

For assay [4], the target named is T1, HarmOR40 (Helicoverpa armigera, UniProt A0A7T3KBF4).
T1 sequence (A0A7T3KBF4 1-401): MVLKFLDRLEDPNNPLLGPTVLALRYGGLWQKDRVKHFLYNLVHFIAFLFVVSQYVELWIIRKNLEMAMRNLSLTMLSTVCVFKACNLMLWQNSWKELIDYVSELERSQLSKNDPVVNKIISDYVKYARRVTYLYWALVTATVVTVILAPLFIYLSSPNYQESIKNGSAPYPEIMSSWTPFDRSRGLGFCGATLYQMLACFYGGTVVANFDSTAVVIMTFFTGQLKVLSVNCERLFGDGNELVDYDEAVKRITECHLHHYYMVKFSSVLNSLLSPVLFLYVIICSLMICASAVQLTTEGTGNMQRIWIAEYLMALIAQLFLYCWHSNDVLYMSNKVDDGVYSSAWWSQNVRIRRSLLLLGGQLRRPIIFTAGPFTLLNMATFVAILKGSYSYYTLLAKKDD
Kind of assay: Xenopus oocyte two-electrode voltage clamp, HarmOR40 + Orco. The format is cell-based. As to conditions: HarmOR40; dose response in oocytes; unit M printed in text only; read-out: EC50. The procedure:
as §2
(§4) Functional characterization of individual ORs was performed by heterologous expression in Xenopus oocytes combined with a two-electrode voltage-clamp system ([Wang et al. 2010]). Briefly, the full-length gene of each OR and Orco were subcloned into the eukaryotic expression vector pT7TS. cRNAs were generated from linearized expression vectors using the mMESSAGE mMACHINE T7 kit (Ambion, Austin, TX). Then, the cRNA mixture of ORx and Orco (27.6 ng each) was injected (Nanoliter 2010, WPI Inc., Sarasota, FL) into oocytes (stage V–VII). The respective Orcos of different species were used for functional studies of OR42 orthologs except for the four butterfly species (V. tameamea, P. xuthus, D. plexippus, and P. rapae), in which we used the Orco from P. xuthus. After incubation in nutrient solution at 18 °C for 3–5 days, the response profile of each oocyte to multiple plant odorants was recorded via a two-electrode voltage clamp (OC-725C oocyte clamp, Warner Instruments, Hamden, CT) at a holding potential of −80 mV. Data were acquired by using a Digidata 1440 A and were analyzed by pCLAMP 10.2 software (Axon Instruments Inc., Union City, CA).
as §1

In assay [5] the target is HarmOR55 (Helicoverpa armigera, UniProt A0A7T3N2G6). Kind of assay: Xenopus oocyte two-electrode voltage clamp, HarmOR55 + Orco. As to conditions: dose response in oocytes, unit M. Format: cell-based. The procedure: as §2, §3
HarmOR55, sequence (A0A7T3N2G6 entry or part of it): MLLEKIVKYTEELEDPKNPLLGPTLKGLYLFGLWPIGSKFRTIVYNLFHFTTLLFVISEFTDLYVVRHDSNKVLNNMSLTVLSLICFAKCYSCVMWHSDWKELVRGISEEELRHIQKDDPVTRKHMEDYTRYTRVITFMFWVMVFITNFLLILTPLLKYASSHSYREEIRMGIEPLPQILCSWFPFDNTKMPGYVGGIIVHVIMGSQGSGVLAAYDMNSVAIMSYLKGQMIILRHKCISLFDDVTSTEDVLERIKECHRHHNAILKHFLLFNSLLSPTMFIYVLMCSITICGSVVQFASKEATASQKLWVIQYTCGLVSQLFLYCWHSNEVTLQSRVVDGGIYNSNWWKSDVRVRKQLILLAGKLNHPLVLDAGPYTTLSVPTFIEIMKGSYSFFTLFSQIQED
Assay [6] concerns HarmOR repertoire. Kind of assay: Responses of the 28 functional HarmORs across odorant doses (PCA of oocyte currents). The format is cell-based, Helicoverpa armigera. As to conditions: odorant 10^−7 M.
From the text: Vectors quantifying the responses of the 28 ORs to each odorant were projected onto a 3D landscape. This 3D representation captured 78.34% (10^−4 M), 65.11% (10^−5 M), 68.89% (10^−6 M), and 84.52% (10^−7 M) of the variation in the original 28D data set across different odorant concentrations. […] In addition, the capacity of the H. armigera odor space was highly dependent on odorant concentration. As the concentrations of odorants decreased, their positions in the odor space converged, with the ability to discriminate different odorants diminishing.
as §4, §1
Graphs and data statistics of OR response spectra, dose responses, EAG, and behavioral experiments were generated by Prism 7 (GraphPad Software, La Jolla, CA). A heat map was generated in Excel 2010 (Microsoft Corporation, WA). […] For tuning breadth analysis, the kurtosis values (K) were calculated by SPSS 22 (SPSS Inc., Chicago, IL) and were used to define the tuning spectra width, where smaller K values represent broader tuning spectra (fig. 1B). […]

For assay [7], the target named is HarmOR8 (Helicoverpa armigera, UniProt A0A7T3N2E2). Kind of assay: Xenopus oocyte two-electrode voltage clamp, HarmOR8 + Orco. Format: cell-based. As to conditions: dose response in oocytes, unit M. The protocol: as §2, §3
HarmOR8, sequence (A0A7T3N2E2 1-406): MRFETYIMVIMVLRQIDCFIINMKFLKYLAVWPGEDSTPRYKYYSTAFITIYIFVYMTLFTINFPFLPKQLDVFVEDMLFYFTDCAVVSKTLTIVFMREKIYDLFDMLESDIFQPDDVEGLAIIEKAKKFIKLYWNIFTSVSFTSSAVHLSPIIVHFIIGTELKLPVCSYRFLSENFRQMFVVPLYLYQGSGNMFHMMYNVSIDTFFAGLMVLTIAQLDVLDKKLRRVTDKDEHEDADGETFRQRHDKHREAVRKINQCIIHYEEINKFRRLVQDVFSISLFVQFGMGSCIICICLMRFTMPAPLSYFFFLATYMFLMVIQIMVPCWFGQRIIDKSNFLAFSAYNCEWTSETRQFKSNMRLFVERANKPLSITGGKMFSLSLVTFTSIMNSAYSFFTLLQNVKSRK
The target in assay [8] is HarmOR63 (Helicoverpa armigera, UniProt A0A7T3N0P9). Kind of assay: Xenopus oocyte two-electrode voltage clamp, HarmOR63 + Orco. The format is cell-based. As to conditions: dose response in oocytes, unit M. The procedure:
as §2, §3

The target in assay [9] is T2, HarmOR60 (Helicoverpa armigera, UniProt A0A7T3N1B9).
T2 sequence (A0A7T3N1B9 1-391): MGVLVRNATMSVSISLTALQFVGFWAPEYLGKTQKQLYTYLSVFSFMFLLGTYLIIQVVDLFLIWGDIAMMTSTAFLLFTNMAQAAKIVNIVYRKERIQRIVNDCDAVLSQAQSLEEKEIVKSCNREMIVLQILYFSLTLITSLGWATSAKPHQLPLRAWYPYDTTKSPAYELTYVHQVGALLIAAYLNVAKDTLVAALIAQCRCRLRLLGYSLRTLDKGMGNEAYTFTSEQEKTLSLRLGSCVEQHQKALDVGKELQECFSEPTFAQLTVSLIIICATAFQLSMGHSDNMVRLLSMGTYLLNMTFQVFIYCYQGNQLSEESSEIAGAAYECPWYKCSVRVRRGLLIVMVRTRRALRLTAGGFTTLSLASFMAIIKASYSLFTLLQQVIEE
Kind of assay: Xenopus oocyte two-electrode voltage clamp, HarmOR60 + Orco. Format: cell-based. The procedure:
as §2
as §4, with “CA). […]” for “CA).”

Assay [10] deals with HarmOR29 (Helicoverpa armigera, UniProt A0A7T3KAG0). Kind of assay: Xenopus oocyte two-electrode voltage clamp, HarmOR29 + Orco. The format is cell-based. As to conditions: dose response in oocytes, unit M. The procedure: as §2, §3
HarmOR29, sequence (A0A7T3KAG0 1-395): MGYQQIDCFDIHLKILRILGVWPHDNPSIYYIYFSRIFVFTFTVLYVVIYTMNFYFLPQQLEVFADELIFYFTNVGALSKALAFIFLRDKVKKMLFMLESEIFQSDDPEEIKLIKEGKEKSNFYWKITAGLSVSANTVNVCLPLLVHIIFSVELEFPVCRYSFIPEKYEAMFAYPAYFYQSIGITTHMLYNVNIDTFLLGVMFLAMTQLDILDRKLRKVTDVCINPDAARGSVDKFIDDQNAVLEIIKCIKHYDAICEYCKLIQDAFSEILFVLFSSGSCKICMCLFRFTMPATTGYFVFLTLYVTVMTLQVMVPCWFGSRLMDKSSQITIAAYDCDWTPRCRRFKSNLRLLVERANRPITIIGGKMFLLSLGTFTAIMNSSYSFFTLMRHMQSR
In assay [11] the target is HarmOR35 (Helicoverpa armigera, UniProt A0A7T3N1A8). The assay can be described thus: Xenopus oocyte two-electrode voltage clamp, HarmOR35 + Orco. The format is cell-based. The procedure:
as §2, §3

In assay [12] the target is HarmOR25 (Helicoverpa armigera, UniProt A0A7T3KAG7). Kind of assay: Xenopus oocyte two-electrode voltage clamp, HarmOR25 + Orco. The format is cell-based. The procedure:
as §2, §3

Assay [13] concerns the target T3, HarmOR43 (Helicoverpa armigera, UniProt A0A7T3KAF8).
T3 sequence (A0A7T3KAF8 1-415): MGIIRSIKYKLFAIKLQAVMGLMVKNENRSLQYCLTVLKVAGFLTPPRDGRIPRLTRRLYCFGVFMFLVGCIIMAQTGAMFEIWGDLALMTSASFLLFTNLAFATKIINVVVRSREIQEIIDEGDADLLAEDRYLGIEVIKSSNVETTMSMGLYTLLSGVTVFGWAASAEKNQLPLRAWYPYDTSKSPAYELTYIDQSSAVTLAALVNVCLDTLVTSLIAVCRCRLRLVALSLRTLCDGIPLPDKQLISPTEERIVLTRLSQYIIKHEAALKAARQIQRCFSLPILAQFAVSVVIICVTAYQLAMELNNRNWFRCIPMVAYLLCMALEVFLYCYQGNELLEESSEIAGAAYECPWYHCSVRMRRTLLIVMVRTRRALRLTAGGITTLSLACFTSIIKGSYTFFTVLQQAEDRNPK
The assay can be described thus: Xenopus oocyte two-electrode voltage clamp, HarmOR43 + Orco. Format: cell-based. As to conditions: dose response in oocytes, unit M. The procedure:
as §2
as §4, with “CA). […]” for “CA).”

HarmOR25, sequence (A0A7T3KAG7 1-398): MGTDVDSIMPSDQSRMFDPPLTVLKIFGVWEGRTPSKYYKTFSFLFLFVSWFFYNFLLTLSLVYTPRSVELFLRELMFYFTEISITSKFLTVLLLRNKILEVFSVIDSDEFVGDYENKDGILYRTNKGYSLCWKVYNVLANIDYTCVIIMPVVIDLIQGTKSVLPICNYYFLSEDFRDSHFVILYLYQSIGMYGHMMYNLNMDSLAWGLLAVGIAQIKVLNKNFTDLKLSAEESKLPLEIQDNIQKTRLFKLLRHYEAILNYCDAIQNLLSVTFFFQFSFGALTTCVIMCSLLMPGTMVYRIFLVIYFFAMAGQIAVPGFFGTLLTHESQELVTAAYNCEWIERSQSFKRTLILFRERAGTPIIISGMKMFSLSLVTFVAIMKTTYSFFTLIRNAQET
HarmOR63, sequence (A0A7T3N0P9 1-407): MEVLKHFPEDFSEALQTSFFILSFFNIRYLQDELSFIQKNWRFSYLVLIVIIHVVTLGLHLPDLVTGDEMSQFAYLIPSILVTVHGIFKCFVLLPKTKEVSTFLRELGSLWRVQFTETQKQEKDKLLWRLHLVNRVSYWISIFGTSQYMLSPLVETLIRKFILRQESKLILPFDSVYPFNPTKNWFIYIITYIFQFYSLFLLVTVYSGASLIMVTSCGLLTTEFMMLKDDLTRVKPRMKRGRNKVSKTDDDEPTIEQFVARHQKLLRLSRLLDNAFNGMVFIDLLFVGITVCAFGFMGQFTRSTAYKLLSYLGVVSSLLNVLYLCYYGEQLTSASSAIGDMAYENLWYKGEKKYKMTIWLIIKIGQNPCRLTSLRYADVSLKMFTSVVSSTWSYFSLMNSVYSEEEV
HarmOR35, sequence (A0A7T3N1A8 entry or part of it): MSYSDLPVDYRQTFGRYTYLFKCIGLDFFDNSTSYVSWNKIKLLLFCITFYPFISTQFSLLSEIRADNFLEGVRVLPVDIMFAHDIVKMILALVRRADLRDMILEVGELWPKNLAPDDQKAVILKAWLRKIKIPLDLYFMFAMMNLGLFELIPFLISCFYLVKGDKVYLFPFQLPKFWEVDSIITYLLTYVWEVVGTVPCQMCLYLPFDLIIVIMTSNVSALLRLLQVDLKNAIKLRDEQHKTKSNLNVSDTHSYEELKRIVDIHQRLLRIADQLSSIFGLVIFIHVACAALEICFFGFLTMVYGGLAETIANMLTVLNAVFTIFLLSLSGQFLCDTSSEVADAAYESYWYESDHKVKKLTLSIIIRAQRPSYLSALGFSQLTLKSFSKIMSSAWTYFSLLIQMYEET
HarmOR31, sequence (A0A7T3N2E9 entry or part of it): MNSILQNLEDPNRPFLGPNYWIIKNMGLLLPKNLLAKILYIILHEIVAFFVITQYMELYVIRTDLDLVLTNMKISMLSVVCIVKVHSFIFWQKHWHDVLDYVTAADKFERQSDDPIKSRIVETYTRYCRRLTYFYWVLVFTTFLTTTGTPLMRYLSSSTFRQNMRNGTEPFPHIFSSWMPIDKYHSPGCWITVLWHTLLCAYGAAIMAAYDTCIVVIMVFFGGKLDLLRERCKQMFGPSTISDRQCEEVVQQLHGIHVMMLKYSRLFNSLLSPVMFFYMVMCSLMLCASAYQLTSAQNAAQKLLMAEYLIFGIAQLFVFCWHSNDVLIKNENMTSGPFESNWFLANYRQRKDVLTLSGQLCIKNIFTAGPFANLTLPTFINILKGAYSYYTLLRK

With `COC(=O)Cc1ccccc1` [Methyl phenylacetate], the results for the EC50 in assay [1] and in [2] were 29.5 µM and 107 µM, respectively.

Consider `C=CC(C)(O)CC/C=C(\C)CCC=C(C)C` (stereo not shown) [(E)-Nerolidol], for which the EC50 was 0.0289 µM in assay [3], 12.5 µM in [4] and 88.1 µM in assay [5]. Besides, in [6], the “response of the HarmOR repertoire” value was “still responded”.

In the case of `C=CCc1ccc(OC)c(OC)c1` [Methyl eugenol], the EC50 in assay [7] worked out at 106 µM.

As to `C=C1CC[C@H]2O[C@]2(C)CC[C@@H]2[C@@H]1CC2(C)C` [(-)-Caryophyllene oxide], the EC50 in assay [8] is 52.1 µM.

`C=C1CC/C=C(\C)CC[C@@H]2[C@@H]1CC2(C)C` [(-)-trans-Caryophyllene]: the EC50 in [8] came to 88.2 µM.

With `CC(=O)OCc1ccccc1` [Benzyl acetate], in assay [2] (HarmOR7, dose response in oocytes, unit M, read-out: EC50), the concentration giving a half-maximal response (EC50) stood at 60.7 µM.

With `C=CCc1ccc(O)c(OC)c1` [Eugenol], the EC50 in assay [9] (HarmOR60, dose response in oocytes, unit M) worked out at 1.72 µM; in assay [10] it was 18.9 µM; in [11], 42.5 µM; in [12] (HarmOR25, dose response in oocytes, unit M) it was 81.6 µM. In addition, the “main ligand of HarmOR60” value in [9] (clade B) is listed as “main ligand”. In assay [12] (clade E), the “main ligand of HarmOR25” value is recorded as “main ligand”.

For `CC1(C)[C@H]2CC=C(C=O)[C@@H]1C2` [(1R)-(-)-Myrtenal], the EC50 in assay [11] (HarmOR35, dose response in oocytes, unit M, read-out: EC50) came to 255 µM.

Turning to `COC(=O)c1ccc(O)cc1` [Methyl 4-hydroxybenzoate], the EC50 in assay [13] was 19.6 µM; in assay [10], 178 µM.
